The test system of experiment [1] is “WVC” Fuji Apples. The settings on record: for Mean Fruit Area per Limb: East Wenatchee, airblast spray at bloom; for Mean Fruit per 100 Clusters: fruit set. On the procedure: A first field trial to test the effects of calcium chloride as a bloom thinning agent was performed in an orchard located in East Wenatchee, Washington, by the Washington Tree Fruit Research Commission on a commercial block of a Fuji apple cultivar of the variety “WVC.” Two areas of the block's apples were each treated with two alternative chemical thinning compounds. Calcium chloride was used in the first area. […] A third area of the apple block was utilized as a control group and treated with water. The treatments were all performed with conventional test methodologies and procedures.
Other than the application of the thinning compounds, all three blocks were managed without differentiation. All treatments were applied utilizing standard airblast sprayers and spreader-stickers as appropriate. The experiments were in a randomized complete block design with 2 to 4 replications. […] Results of this trial are listed in TABLE 1 and shown in the graphs of FIGS. 1 and 3.

For experiment [2], the system named is “Lutz” Red Delicious Apples. As to conditions: for Mean Fruit Area per Limb: Azwell; for Mean Fruit per 100 Clusters: fruit set. On the procedure:
A second field trial to test the effects of calcium chloride as a bloom thinning agent was performed at an orchard located in Azwell, Washington, by the Washington Tree Fruit Research Commission on a commercial block of a Red Delicious apple cultivar of the variety “Lutz.” Three areas of the block's apples were each treated with one of three alternative chemical thinning compounds. […] Calcium chloride was used in the second area and “Crocker's” lime and sulfur was used in the third area. A fourth area of the apple block was utilized as a control group and treated with water as a control. The treatments were all performed with conventional test methodologies and procedures. Other than the application of the thinning compounds, all four blocks were managed without differentiation.

In experiment [3] the test system is apples. Kind of experiment: Overall observations of both field trials (damage, thinning, fruit L/D). In kind it is in vivo, apple. On the procedure: A series of field trials comparing the calcium chloride composition of the present invention to other alternative chemical thinners were performed to verify efficacy as a bloom thinner. The trials followed labeling recommendations and best management practices for all applications. Two of these trials are discussed as follows, but are not intended to specifically limit the invention: […]

As for `[Ca+2].[Cl-].[Cl-]` [CaCl, calcium chloride], in experiment [1], the “% Flower Clusters Blanked” value was 40.0%, the “% Flower Clusters Doubled” value was 12.5%, the “% Flower Clusters Singled” value stood at 45.5% and the “% Flower Clusters Tripled” value came out at 2.0%. In experiment [1], the “% Flower Clusters w/4+ Fruit” value stood at 0.1%, the “Mean Fruit Area per Limb” value turned out to be 5.0 cm^2 and the “Mean Fruit per 100 Clusters” value stood at 79. Moreover, in experiment [2], the “% Flower Clusters Blanked” value amounted to 41.7%, the “% Flower Clusters Doubled” value is 12.7%, the “% Flower Clusters Singled” value was found to be 44.4% and the “% Flower Clusters Tripled” value worked out at 1.0%. In experiment [2], the “% Flower Clusters w/4+ Fruit” value came to 0.2%, the “Mean Fruit Area per Limb” value was 2.6 cm^2 and the “Mean Fruit per 100 Clusters” value was determined as 73. In addition, the “impact on average fruit length over diameter (L/D) ratio” value in experiment [3] (harvested fruit) is “minimally impacted”. Also, in experiment [3] (with feedback on hand thinning time per tree, ATS versus calcium chloride), the “difference in bloom thinning between treatments” value was “no consistent, significant differences between ATS and calcium chloride”.
Take “ammonium thiosulfate [ATS, reference compound]”: in experiment [1], the “% Flower Clusters Blanked” value was found to be 38.2%, the “% Flower Clusters Doubled” value is reported as 11.9%, the “% Flower Clusters Singled” value came to 47.4% and the “% Flower Clusters Tripled” value stood at 1.9%. In experiment [1], the “% Flower Clusters w/4+ Fruit” value came out at 0.7%, the “Mean Fruit Area per Limb” value came out at 5.8 cm^2 and the “Mean Fruit per 100 Clusters” value is given as 84. Further, in experiment [2], the “% Flower Clusters Blanked” value is listed as 47.0%, the “% Flower Clusters Doubled” value came out at 12.8%, the “% Flower Clusters Singled” value is reported as 38.8% and the “% Flower Clusters Tripled” value was found to be 1.5%. Also, in experiment [2], the “% Flower Clusters w/4+ Fruit” value came to 0.0%, the “Mean Fruit Area per Limb” value is 2.7 cm^2 and the “Mean Fruit per 100 Clusters” value was determined as 69.
